In patent US20260345561A1, “METHODS AND COMPOSITIONS FOR USE IN TREATING AUTOSOMAL RECESSIVE POLYCYSTIC KIDNEY DISEASE (ARPKD)” (The General Hospital Corporation, priority 2022, published 2026):
Entries after “also recorded” stand apart in the source; their conditions may differ. Like-named read-outs stand apart in the source and are kept apart here.

What was measured:
[1] = racemic ketorolac 15 or 30 mg; Guo et al. 2015; cited from earlier work
[2] = system: PKHD1−/− organoids; test: CDH1+ distal tubular enlargement / cyst formation by 3D imaging of cleared whole organoids-on-a-chip; type: cell-based, human; conditions: for cyst suppression: Z-DEVD-FMK 1 μM, Quercetagetin 10 μM, rhCXCL16 1 ng/ml (FIG. 3D, E)
Description: (§1) H9 (WiCell) human ES cells, H9-derived PKHD1 mutants, and ARPKD patient-derived iPSCs (68) were maintained on hESC-qualified Geltrex (Thermo Fisher Scientific) coated plates using StemFit® Basic02 (Ajinomoto Co., Inc.) supplemented with 10 ng/ml of FGF2 (Peprotech), as previously reported (69).
Heterozygotic (PKHD1+/−) and compound homozygotic (PKHD1−/−) mutant lines were generated using methodology previously outlined (70), which generated clones of isogenic progeny via clonal expansion from single cells. PX459 plasmid encoding a Streptococcus pyogenes Cas9 and guide RNA (sgRNA) targeting the third exon of PKHD1 (5′-[…]-3′; SEQ ID NO:1) was transfected into H9 hESCs to generate the heterozygotic mutant line, which then served as the parental line to generate the compound homozygotic mutant. Transfected cells were selected by transient puromycin treatment. CRISPR/Cas9-induced mutations of individual clones were identified by deep sequencing.
The organoids were seeded onto the chip devices on day 14 of their differentiation and cultured on chip by flowing cell culture medium composed of ARMPI with GlutaMAX, 1% Antibiotic/Antimycotic solution (Gibco), and 1.5% heat-inactivated fetal bovine serum (Gibco). All cell culture medium was pre-equilibrated to the cell culture incubator environment for at least 2 hr before chip assembly and seeding. The kidney organoids-on-a-chip was then held in a cell culture incubator for 30 min under static conditions, before connecting the inlet perfusion tubing to an IPC-N peristaltic pump (Ismatech) and perfusing the cell culture media at 42.7 μl/min overnight in the incubator. The following day (day 15 of organoid differentiation), the sterile filter was removed from the perfusion line to avoid bubble formation at high perfusion speeds, and the perfusion speed was ramped up to 4.27 mL/min. Cell culture medium was changed in the reservoir every 2-3 days.
Full media exchanges were conducted every 2-3 days. Treatment of the kidney organoids-on-a-chip was started at day 16 of their differentiation until day 35.
The chip device was taken out of the incubator for fixation, and the lid was carefully removed in a sterile biosafety cabinet. The kidney organoids adherent on the surface of the ECM were rinsed with PBS, carefully overlayed with 4% PFA, and fixed for 45 min at RT. Post fixation, the samples were washed three times with 0.1% Triton-X (Sigma) for 30 min. Organoids were stained and cleared with ethyl cinnamate (Sigma), as described before (78). The following antibodies were used in these studies: anti-CDH1 (Abcam, ab11512), anti-CFTR (Sigma, HPA021939), anti-LTL (Vector lab, B-1325), anti-PODXL (R&D systems, AF1658), anti-K167 (Dako, m7248), Anti-pS6RP (Cell signaling, 2211S), anti-RAC1 (Developmental Studies Hybridoma Bank, CPTC-RAC1-2), anti-FOS (Abcam, ab190289). Samples were examined by a Zeiss TIRF/LSM 710 confocal microscopy or a Leica […] 8 confocal microscopy, and by using Imaris 3D software (Bitplane).
(§2) Data in all bar charts and dot plots are expressed as mean±s.d. Statistical analysis was done in GraphPad Prism 9, and statistical significance was attributed to values of P<0.05 as determined by one-way ANOVA with Tukey's multiple-comparisons test unless otherwise noted. Different significance levels (P values) are indicated in each figure with asterisks: *P<0.05, **P<0.01, ***P<0.001, and ****P<0.0001. […] FIG. 1F; n=74 LTL+ tubules with flow, n=66 LTL+ tubules in static culture, n=191 LTL+ tubules treated with forskolin, n=32 CDH1+ tubules with flow, n=27 CDH1+ tubules in static culture, and n=104 CDH1+ tubules treated with forskolin. FIG. 2C; n=16 tubules transfected with siControl, n=17 tubules transfected with siKIF3A.

[3] = system: ARPKD patient-derived organoids; conditions: prior ARPKD organoid model from patient-derived iPS cells, static culture (ref. 17); cited from earlier work
[4] = system: RAC1; conditions: cited from earlier work
[5] = system: ARFIP2; conditions: flow, R-Naproxen 20 μM
Description: (§3) Total RNA was isolated from kidney organoid samples using TRIzol (Invitrogen, #15596026). cDNA was synthesized from 500 ng of RNA using a High-capacity cDNA Reverse Transcription kit (Applied Biosystems, #4368814) according to the manufacturer's instructions. Real-time PCR was performed using iTaq SYBR green supermix (Bio-Rad, #1725124) and QuantStudio3 Real-time PCR systems. The expression of mRNA was assessed by evaluating threshold cycle (CT) values. The CT values and relative expression levels were normalized by ribosomal protein S18 (RPS18), and the relative amount of mRNA specific to each of the target genes was calculated (n=3 in each experiment).
as §2, with “siKIF3A. 8 organoids transfected with siControl, and 7 organoids transfected with siKIF3A from 2 independent chips were analyzed in FIG. 2C.” for “siKIF3A.”

[6] = system: BAIAP2; conditions: flow, R-Naproxen 20 μM
Description: as §3
as §2, with “siKIF3A. 8 organoids transfected with siControl, and 7 organoids transfected with siKIF3A from 2 independent chips were analyzed in FIG. 2C.” for “siKIF3A.”

[7] = system: COX; conditions: cited from earlier work
[8] = system: ARFIP2; conditions: PKHD1−/− organoids, R-Naproxen 20 μM, day 23 (FIG. 5F)
Source text: as §2, with “siKIF3A. 8 organoids transfected with siControl, and 7 organoids transfected with siKIF3A from 2 independent chips were analyzed in FIG. 2C.” for “siKIF3A.”

[9] = cited from earlier work
[10] = clinical trials for arthritis / humans (ref. 45); cited from earlier work
[11] = system: PRDM1; test: qPCR for PRDM1 (FOS downstream gene); type: cell-based, human; conditions: PKHD1−/− and ARPKD patient-derived organoids, flow, T-5224 10 μM, day 16 to 23
Description: (§4) FIG. 2J; n=4 (perfusion), n=4 (rest). FIG. 2K; n=3. […] 3 independent experiments were performed for FIG. 3E. […] FIG. 4H; n=4 (control), n=4 (ARPKD). FIG. 4I; n=4 (control), n=4 (ARPKD).

[12] = system: PRDM1; test: Quantitative immunohistochemistry for PRDM1; type: cell-based, human; conditions: PKHD1−/− organoids, T-5224 10 μM, day 23 (FIG. 5F)
Description: as §4

[13] = system: DUSP1; test: qPCR for DUSP1 (FOS downstream gene); type: cell-based, human; conditions: PKHD1−/− and ARPKD patient-derived organoids, flow, T-5224 10 μM, day 16 to 23
Description: as §4

[14] = system: FOS; conditions: cited from earlier work
[15] = system: NPTX2; test: qPCR for NPTX2 (FOS downstream gene); type: cell-based, human; conditions: PKHD1−/− and ARPKD patient-derived organoids, flow, T-5224 10 μM, day 16 to 23
Description: as §4

[16] = system: ARPKD patient-derived organoids; test: Cyst formation on cAMP induction in static patient-derived organoids; type: cell-based, human
Description: as §1
Kidney organoids were cultured in static condition and treated with 20 μM of forskolin (Sigma, #F6886), a cAMP inducer, from day 14 to day 35.
as §4

[17] = system: PKHD1−/− organoids; test: Cyst formation / tubular diameter on forskolin treatment in static culture; type: cell-based, human
Source text: as §2, with “siKIF3A. 8 organoids transfected with siControl, and 7 organoids transfected with siKIF3A from 2 independent chips were analyzed in FIG. 2C.” for “siKIF3A.”

[18] = PKHD1−/− organoids under flow, day 16 to 35, T-5224 10 μM, NSC23766 10 μM, 2-MeOE2 5 μM (FIG. 3D, E)
[19] = PKHD1−/− organoids under flow, day 16 to 35
[20] = PKHD1−/− organoids-on-a-chip, day 16 to 35, flow, R-Naproxen 20 μM, R-Ketorolac 1 and 10 μM, T-5224 10 μM (FIG. 4B, C)
[21] = ARPKD patient-derived organoids, day 16 to 23 (FIG. 14)
[22] = PKHD1−/− (CRISPR-mutant) organoids, day 16 to 23 (FIG. 5E)
[23] = forskolin 20 μM, static (FIG. 1F right)

Molecule: O=C(c1ccccc1)c1ccc2n1CCC2C(=O)O (racemic) [racemic ketorolac]
- R-ketorolac level [1]: achieved likely therapeutic ranges of R-ketorolac

Molecule: COc1cc2c(cc1O)CC[C@@H]1[C@@H]2CC[C@]2(C)[C@@H](O)CC[C@@H]12 [2-MeOE2, 2-Methoxyestradiol]
- CDH1+ tubular enlargement [2, 18]: significant reduction

Molecule: Nc1ncnc2c1nc(Br)n2[C@@H]1O[C@@H]2COP(=O)(O)O[C@H]2[C@H]1O [8-Br-cAMP, 8-Bromoadenosine 3′,5′-cyclic monophosphate]
- cyst formation in CDH1+ distal nephrons [3]: rarely developed cysts
- cyst formation in LTL+ proximal tubules [3]: formed cystic structures

Molecule: CCN(CC)CCCC(C)Nc1nc(C)cc(Nc2ccc3nc(C)cc(N)c3c2)n1 (centres unmarked) [NSC23766]
- CDH1+ tubular enlargement [2, 18]: significant reduction

Molecule: O=c1c(O)c(-c2ccc(O)c(O)c2)oc2cc(O)c(O)c(O)c12 [Quercetagetin]
- cyst suppression [2, 19]: did not affect cyst suppression

Molecule: O=C(c1ccccc1)c1ccc2n1CC[C@H]2C(=O)O [R-Ketorolac]
- CDH1+ tubular enlargement [2, 20]: significant reductions
- inhibitory effect against RAC1 [4]: inhibitory effect against RAC1

Molecule: COc1ccc2cc([C@@H](C)C(=O)O)ccc2c1 [R-Naproxen]
- CDH1+ tubular enlargement [2, 20]: significant reductions
- cyst suppression (general statement) ([2]; present data, R-Naproxen): cyst suppression
- RAC1 inhibition [4]: enhanced RAC1 inhibition
- inhibitory effect against RAC1 [4]: inhibitory effect against RAC1
- ARFIP2 expression (qPCR) [5, 21]: rescued
- ARFIP2 expression (qPCR) [5, 22]: rescued
- BAIAP2 expression (qPCR) [6, 21]: rescued
- BAIAP2 expression (qPCR) [6, 22]: rescued
- COX inhibition [7]: limited COX inhibition
- ARFIP2 expression (immunohistochemistry), decreased by flow [8]: rescue

Molecule: COc1ccc2cc([C@H](C)C(=O)O)ccc2c1 [S-Naproxen]
- cyst formation ([2]; PKHD1−/− organoids cultured under flow, S-Naproxen 20 μM (FIG. 11)): did not inhibit cyst formation
- RAC1 inhibitory activity [4]: lacks RAC1 inhibitory activity
- anti-inflammatory effect [9]: has an anti-inflammatory effect

Molecule: O=C(O)CCc1cc(C(=O)c2ccc(OC3CCCC3)cc2O)ccc1OCc1ccc2c(O)noc2c1 [T-5224, 3-{5-[4-(cyclopentyloxy)-2-hydroxybenzoyl]-2-[(3-hydroxy-1,2-benzisoxazol-6-yl)methoxy]phenyl}propionic acid]
- CDH1+ tubular enlargement [2, 18]: significant reduction
- CDH1+ tubular enlargement [2, 20]: significant reductions
- safety profile [10]: favorable safety profile; also recorded: proven to be safe in humans
- PRDM1 expression (qPCR) [11]: reverse expression
- PRDM1 expression (immunohistochemistry), decreased by flow [12]: rescue
- DUSP1 expression (qPCR) [13]: reverse expression
- FOS inhibition [14]: selective FOS inhibitor; also recorded: specific FOS inhibitor
- NPTX2 expression (qPCR) [15]: reverse expression

Molecule: C=C[C@@]1(C)CC(=O)[C@]2(O)[C@@]3(C)[C@@H](O)CCC(C)(C)[C@@H]3[C@H](O)[C@H](OC(C)=O)[C@@]2(C)O1 [forskolin]
- cyst formation ([16]; ARPKD patient-derived organoids, forskolin 5, 10, 20 μM (FIGS. 6A-G)): form cysts
- cyst formation in LTL+ proximal tubules ([16]; static organoids derived from ARPKD-patient iPSCs): induced cyst formation
- cyst formation ([17]; forskolin 20 μM (FIGS. 8A-H)): form cysts
- diameter in LTL+ CDH− (proximal) tubules [17, 23]: increases
- diameter in LTL− CDH1+ (distal) tubules [17, 23]: increases
- cyst formation in CDH1+ distal nephrons [3]: rarely developed cysts
- cyst formation in LTL+ proximal tubules [3]: formed cystic structures

Molecule: Z-DEVD-FMK
- cyst suppression [2, 19]: marginal effect

B1: rhCXCL16: recombinant human C—X—C Motif Chemokine Ligand 16 (rhCXCL16) for CXCL16 (protein, UniProt Q9H2A7 30-254, looked up)
C-X-C motif chemokine 16: NEGSVTGSCYCGKRISSDSPPSVQFMNRLRKHLRAYHRCLYYTRFQLLSWSVCGGNKDPWVQELMSCLDLKECGHAYSGIVAHQKHLLPTSPPISQASEGASSDIHTPAQMLLSTLQSTQRPTLPVGSLSSDKELTRPNETTIHTAGHSLAAGPEAGENQKQPEKNAGPTARTSATVPVLCLLAIIFILTAALSYVLCKRRRGQSPQSSPDLPVHYIPVAPDSNT
- cyst suppression [2, 19]: did not affect cyst suppression
